Laboratory results reported in patent US10457677B2 (priority 2015, dated 2019).

Columns and labels:
[1] = molecular target: purified human recombinant ATM (ataxia telangiectasia mutated), full length (Homo sapiens (Human), UniProt Q13315); assay: ATM kinase assay - determination of ATM inhibition (IC50 ATM), TR-FRET; assay type: biochemical; conditions: 10 μM ATP, substrate p53
How it was run: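 Full-length enzyme, expressed in a mammalian cell line, pre-incubated 15 min with inhibitor in 25 mM HEPES pH 8.0, 10 mM Mg(CH3COO)2, 1 mM MnCl2, 0,1% BSA, 0,01% Brij 35, 5 mM DTT. Full-length cmyc-p53 (Sf21-expressed) and ATP then added, 30-35 min at 22° C. EDTA stop; p53 S15 phosphorylation read by TR-FRET antibodies.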

[2] = tested on: phosphorylation of CHK2 (phospho-Thr68) in HCT116 cells; assay: Cellular pCHK2 assay: bleomycin-induced phosphorylation of CHK2 (phospho-Thr68), immunofluorescence high-content analysis; assay type: cell-based, human; conditions: Homo sapiens, HCT-116, 4 h, read-out: IC50 (pCHK2)
From the text: For the identification of substances which inhibit the phosphorylation of the protein kinase CHK2 at the amino acid threonine 68, an immunofluorescence-based “high content” analysis assay was used in HCT116 cells.
In vitro cell-based immunofluorescence assay for the identification of inhibitors of bleomycin-induced phosphorylation of CHK2 (phospho-Thr68) in the human colon carcinoma cell line HCT116:
HCT116 cells are sown out in a defined cell density in 384-well plates in culture medium (DMEM high glucose, 2 mM GlutaMax, 1 mM Na pyruvate, 10% FCS) and incubated overnight at 37° C. and 10% of CO2. On the following day, the test substances are added in a defined concentration range (1 nM to 30 μM) in combination with 10 μM bleomycin, where the concentration of the solvent DMSO is kept constant at 0.5%. […] Parallel staining of DNA with propidium iodide enables determination of the cell count. The pCHK2 signal is detected using a high-content imager (Molecular Devices IMX Ultra) and automatic image analysis using the MetaXpress software belonging to the instrument. The number of cell nuclei which have a pCHK2 signal above a defined background is determined.

PI3K p110δ/p85α (human) = PI3K p110δ/p85α (human) (Homo sapiens (Human), UniProt O00329); assay: PI3K p110δ/p85α (human), non-radioactive assay (HTRF); assay type: biochemical; conditions: as printed:
Method: PI3K p110δ/p85α (Human), Non-radioactive Assay
(§1) PI3K p110δ/p85α (human) was incubated in an assay buffer comprising 10 μM phosphati-dylinositol 4,5-bisphosphate and MgATP (concentration as necessary). The reaction was initiated by addition of MgATP solution. After an incubation time of 30 min at room temperature, the reaction was stopped by addition of a solution consisting of EDTA and biotinylated phosphatidylinositol 3,4,5-trisphosphate. Finally, the detection buffer, consisting of a europium-labelled anti-GST monoclonal antibody, a GST-labelled GRP1 PH domain and streptavidin allophycocyanin, was added. The plate was read out via homogeneous time-resolved fluorescence (HTRF) and the corresponding signals were evaluated via the formula HTRF=10000×(Em665nm/Em620nm).

PI3K p110α/p85α (human) = PI3K p110α/p85α (human) (Homo sapiens (Human), UniProt P42336); assay: PI3K p110α/p85α (human), non-radioactive assay (HTRF); assay type: biochemical; conditions: as printed:
Method: PI3K p110α/p85α (Human), Non-radioactive Assay
as §1, with “p110α/p85α” for “p110δ/p85α”, “After” for “After an”, “incubation” for “incubation time of 30 min”, “temperature for 40 minutes,” for “temperature,”

PI3K (p120γ) (human) = PI3K (p120γ) (human) (Homo sapiens (Human), UniProt P48736); assay: PI3K (p120γ) (human), non-radioactive assay (HTRF); assay type: biochemical; conditions: as printed:
Method: PI3K (p120γ) (Human), Non-radioactive Assay
as §1, with “(p120γ)” for “p110δ/p85α”, “HTRF=10000×(Em665nm/Em620nm). • MgATP=magnesium 5′-O—[hydroxy({[(hydroxyphosphinato)oxy]phosphinato}oxy)phosphoryl]adenosine • MgCl2=magnesium dichloride • EGTA=ethylene glycol bis(aminoethyl ether) N,N,N′,N′-tetraacetic acid • Tween 20=polysorbate 20 Medicament/pharmaceutical Composition” for “HTRF=10000×(Em665nm/Em620nm).”

Sequence of PI3K (p120γ) (human) (P48736 whole entry): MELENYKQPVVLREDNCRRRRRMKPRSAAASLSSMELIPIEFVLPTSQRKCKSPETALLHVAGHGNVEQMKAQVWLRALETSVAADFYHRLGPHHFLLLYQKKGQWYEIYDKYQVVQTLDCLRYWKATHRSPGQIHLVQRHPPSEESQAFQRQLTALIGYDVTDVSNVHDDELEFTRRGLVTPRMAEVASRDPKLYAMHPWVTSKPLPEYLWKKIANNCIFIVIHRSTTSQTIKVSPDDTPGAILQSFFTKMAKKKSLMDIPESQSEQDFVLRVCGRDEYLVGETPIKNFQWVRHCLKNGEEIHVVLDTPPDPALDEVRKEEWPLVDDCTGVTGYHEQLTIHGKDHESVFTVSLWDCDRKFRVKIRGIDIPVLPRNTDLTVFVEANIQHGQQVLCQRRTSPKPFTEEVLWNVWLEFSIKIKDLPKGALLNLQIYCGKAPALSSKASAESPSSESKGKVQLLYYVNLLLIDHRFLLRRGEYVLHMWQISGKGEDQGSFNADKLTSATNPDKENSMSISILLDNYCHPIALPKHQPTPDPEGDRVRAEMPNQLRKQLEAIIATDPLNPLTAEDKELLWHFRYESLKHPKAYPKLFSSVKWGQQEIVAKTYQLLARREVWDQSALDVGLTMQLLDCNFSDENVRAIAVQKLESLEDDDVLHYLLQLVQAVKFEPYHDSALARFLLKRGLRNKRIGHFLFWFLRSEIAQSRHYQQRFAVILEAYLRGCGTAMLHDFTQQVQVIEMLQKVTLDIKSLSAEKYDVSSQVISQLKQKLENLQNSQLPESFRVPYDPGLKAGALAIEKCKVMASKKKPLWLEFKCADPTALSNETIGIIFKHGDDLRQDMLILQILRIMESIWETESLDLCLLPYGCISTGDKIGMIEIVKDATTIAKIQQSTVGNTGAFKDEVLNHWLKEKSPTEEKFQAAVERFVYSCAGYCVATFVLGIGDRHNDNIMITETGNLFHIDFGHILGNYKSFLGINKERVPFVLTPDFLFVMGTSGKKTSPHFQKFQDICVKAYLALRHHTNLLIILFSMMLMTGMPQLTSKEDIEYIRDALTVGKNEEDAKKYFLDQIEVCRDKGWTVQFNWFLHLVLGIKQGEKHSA
Sequence of purified human recombinant ATM (ataxia telangiectasia mutated), full length (Q13315 whole entry, change not shown): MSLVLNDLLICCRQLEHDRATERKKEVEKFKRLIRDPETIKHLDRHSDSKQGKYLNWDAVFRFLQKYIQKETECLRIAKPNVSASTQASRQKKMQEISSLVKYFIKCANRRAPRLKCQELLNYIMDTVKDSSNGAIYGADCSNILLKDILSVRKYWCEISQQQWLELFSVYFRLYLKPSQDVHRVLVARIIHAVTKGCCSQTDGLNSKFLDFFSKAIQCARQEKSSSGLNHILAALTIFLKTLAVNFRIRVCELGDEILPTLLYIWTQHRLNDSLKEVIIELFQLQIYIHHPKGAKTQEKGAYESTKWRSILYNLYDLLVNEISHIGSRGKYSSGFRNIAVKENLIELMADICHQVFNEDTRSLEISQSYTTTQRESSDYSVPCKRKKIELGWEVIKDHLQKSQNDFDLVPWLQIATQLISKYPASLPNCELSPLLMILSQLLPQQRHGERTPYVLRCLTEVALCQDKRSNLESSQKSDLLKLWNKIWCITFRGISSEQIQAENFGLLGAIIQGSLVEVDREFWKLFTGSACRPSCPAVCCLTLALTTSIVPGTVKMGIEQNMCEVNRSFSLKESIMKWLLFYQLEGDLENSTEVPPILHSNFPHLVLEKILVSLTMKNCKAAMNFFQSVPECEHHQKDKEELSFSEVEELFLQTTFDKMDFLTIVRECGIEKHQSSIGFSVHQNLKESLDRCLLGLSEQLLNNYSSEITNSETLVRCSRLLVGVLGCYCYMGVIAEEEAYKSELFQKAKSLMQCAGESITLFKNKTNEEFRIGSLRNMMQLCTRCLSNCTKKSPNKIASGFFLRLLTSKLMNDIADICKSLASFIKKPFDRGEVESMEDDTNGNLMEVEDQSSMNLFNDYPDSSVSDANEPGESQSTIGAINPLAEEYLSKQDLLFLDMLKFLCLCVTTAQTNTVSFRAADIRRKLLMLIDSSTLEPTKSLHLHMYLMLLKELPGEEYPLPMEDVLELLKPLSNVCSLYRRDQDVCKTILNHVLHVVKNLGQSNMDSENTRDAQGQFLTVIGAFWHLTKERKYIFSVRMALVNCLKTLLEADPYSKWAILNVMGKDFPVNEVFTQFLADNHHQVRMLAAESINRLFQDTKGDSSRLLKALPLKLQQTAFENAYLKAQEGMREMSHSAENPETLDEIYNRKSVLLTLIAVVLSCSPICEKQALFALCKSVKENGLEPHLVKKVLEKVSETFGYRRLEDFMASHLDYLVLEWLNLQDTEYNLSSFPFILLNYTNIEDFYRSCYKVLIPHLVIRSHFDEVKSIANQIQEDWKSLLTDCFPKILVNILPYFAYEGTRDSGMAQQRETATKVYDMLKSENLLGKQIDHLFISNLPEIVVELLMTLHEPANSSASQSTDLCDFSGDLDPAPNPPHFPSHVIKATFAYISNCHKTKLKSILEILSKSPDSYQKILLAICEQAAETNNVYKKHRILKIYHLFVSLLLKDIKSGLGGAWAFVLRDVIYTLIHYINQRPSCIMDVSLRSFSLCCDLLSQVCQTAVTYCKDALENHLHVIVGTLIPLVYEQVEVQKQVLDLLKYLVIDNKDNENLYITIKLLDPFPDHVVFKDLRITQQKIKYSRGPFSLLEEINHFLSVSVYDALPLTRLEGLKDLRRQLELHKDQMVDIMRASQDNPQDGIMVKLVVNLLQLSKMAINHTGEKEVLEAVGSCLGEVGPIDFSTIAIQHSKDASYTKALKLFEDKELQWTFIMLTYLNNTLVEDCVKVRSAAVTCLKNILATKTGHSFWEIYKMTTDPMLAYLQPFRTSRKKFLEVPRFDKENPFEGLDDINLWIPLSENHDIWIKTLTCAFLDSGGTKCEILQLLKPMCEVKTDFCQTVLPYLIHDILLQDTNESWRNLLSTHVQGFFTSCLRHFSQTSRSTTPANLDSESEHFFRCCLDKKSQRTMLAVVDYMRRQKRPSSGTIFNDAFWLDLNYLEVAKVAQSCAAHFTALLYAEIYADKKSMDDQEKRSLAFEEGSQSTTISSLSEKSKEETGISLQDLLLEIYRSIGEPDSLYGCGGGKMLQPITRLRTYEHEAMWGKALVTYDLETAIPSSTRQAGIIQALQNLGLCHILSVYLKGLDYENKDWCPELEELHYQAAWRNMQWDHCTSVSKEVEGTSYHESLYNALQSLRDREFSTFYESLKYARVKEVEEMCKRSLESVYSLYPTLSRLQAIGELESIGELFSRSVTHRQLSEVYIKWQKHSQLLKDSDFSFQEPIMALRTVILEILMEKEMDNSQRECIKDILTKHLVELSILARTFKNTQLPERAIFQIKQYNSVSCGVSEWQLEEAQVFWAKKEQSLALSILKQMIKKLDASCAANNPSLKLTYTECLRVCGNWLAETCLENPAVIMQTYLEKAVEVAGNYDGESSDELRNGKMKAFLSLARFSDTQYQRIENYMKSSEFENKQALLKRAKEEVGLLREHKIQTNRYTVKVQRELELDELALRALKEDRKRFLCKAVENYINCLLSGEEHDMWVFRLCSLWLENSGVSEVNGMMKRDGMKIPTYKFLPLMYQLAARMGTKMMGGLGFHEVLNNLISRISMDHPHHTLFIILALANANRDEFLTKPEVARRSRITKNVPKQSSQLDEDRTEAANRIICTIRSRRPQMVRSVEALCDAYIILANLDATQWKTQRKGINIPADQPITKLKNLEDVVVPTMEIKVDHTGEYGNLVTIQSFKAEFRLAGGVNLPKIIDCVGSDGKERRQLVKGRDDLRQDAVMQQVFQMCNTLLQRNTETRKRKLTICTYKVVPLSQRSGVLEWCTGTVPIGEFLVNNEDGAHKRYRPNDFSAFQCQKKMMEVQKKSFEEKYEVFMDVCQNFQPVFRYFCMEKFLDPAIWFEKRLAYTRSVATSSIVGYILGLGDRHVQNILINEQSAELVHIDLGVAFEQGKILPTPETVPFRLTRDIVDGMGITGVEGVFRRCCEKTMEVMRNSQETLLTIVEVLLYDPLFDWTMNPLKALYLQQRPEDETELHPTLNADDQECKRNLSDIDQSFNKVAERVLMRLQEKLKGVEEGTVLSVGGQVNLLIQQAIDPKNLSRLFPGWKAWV

## COc1cc2ncc3c(c2cc1-c1cnn(C)c1)n(-c1ncc(OC2CNC2)cc1F)c(=O)n3C [compound 205, 1-[5-(Azetidin-3-yloxy)-3-fluoropyridin-2-yl]-7-methoxy-3-methyl-8-(1-methyl-1H-pyrazol-4-yl)-1,3-dihydroimidazo[4,5-c]-quinolin-2-one]
[1]
  IC50: < 1 nM
[2]
  IC50: 200 to 1000 nM
PI3K p110δ/p85α (human)
  ratio IC50 (ATM) vs PI3Kdelta, selectivity with respect to PI3Kdelta: at least 2000 times
PI3K p110α/p85α (human)
  ratio IC50 (ATM) vs PI3Kalpha, selectivity with respect to PI3Kalpha: at least 2000 times
PI3K (p120γ) (human)
  ratio IC50 (ATM) vs PI3Kgamma, selectivity with respect to PI3Kgamma: at least 2000 times

## COc1cnc(-n2c(=O)n(C)c3cnc4cc(OC)c(-c5c[nH]nc5C)cc4c32)c(F)c1 [compound 122, 1-(3-Fluoro-5-methoxy-pyridin-2-yl)-7-methoxy-3-methyl-8-(3-methyl-1H-pyrazol-4-yl)-1,3-dihydro-imidazo[4,5-c] quinolin-2-one]
[1]
  IC50: < 1 nM
[2]
  IC50: < 200 nM
PI3K p110δ/p85α (human)
  ratio IC50 (ATM) vs PI3Kdelta, selectivity with respect to PI3Kdelta: at least 2000 times
PI3K p110α/p85α (human)
  ratio IC50 (ATM) vs PI3Kalpha, selectivity with respect to PI3Kalpha: at least 2000 times
PI3K (p120γ) (human)
  ratio IC50 (ATM) vs PI3Kgamma, selectivity with respect to PI3Kgamma: at least 2000 times

## COc1cc2ncc3c(c2cc1-c1c[nH]nc1C)n(-c1ncc(F)cc1F)c(=O)n3C [compound 117, 1-(3,5-Difluoropyridin-2-yl)-7-methoxy-3-methyl-8-(3-methyl-1H-pyrazol-4-yl)-1,3-dihydroimidazo[4,5-c]-quinolin-2-one]
[1]
  IC50: < 10 nM
[2]
  IC50: 200 to 1000 nM
PI3K p110δ/p85α (human)
  ratio IC50 (ATM) vs PI3Kdelta, selectivity with respect to PI3Kdelta: at least 2000 times
PI3K p110α/p85α (human)
  ratio IC50 (ATM) vs PI3Kalpha, selectivity with respect to PI3Kalpha: at least 2000 times
PI3K (p120γ) (human)
  ratio IC50 (ATM) vs PI3Kgamma, selectivity with respect to PI3Kgamma: at least 2000 times

## CCc1cncc(F)c1-n1c(=O)n(C)c2cnc3cc(OC)c(-c4cn(C)nn4)cc3c21 [compound 126, 1-(3-Ethyl-5-fluoropyridin-4-yl)-7-methoxy-3-methyl-8-(1-methyl-1H-1,2,3-triazol-4-yl)-1,3-dihydroimidazo-[4,5-c] quinolin-2-one]
[1]
  IC50: < 10 nM
[2]
  IC50: 200 to 1000 nM
PI3K p110δ/p85α (human)
  ratio IC50 (ATM) vs PI3Kdelta, selectivity with respect to PI3Kdelta: at least 2000 times
PI3K p110α/p85α (human)
  ratio IC50 (ATM) vs PI3Kalpha, selectivity with respect to PI3Kalpha: at least 2000 times
PI3K (p120γ) (human)
  ratio IC50 (ATM) vs PI3Kgamma, selectivity with respect to PI3Kgamma: at least 2000 times

## COc1cc2ncc3c(c2cc1-c1cnn(C)c1)n(-c1ncc(N2CCNCC2)cc1F)c(=O)n3C [compound 123, 1-(3-Fluoro-5-piperazin-1-yl-pyridin-2-yl)-7-methoxy-3-methyl-8-(1-methyl-1H-pyrazol-4-yl)-1,3-dihydro-imidazo[4,5-c]quinolin-2-one]
[1]
  IC50: < 10 nM
[2]
  IC50: 200 to 1000 nM
PI3K p110δ/p85α (human)
  ratio IC50 (ATM) vs PI3Kdelta, selectivity with respect to PI3Kdelta: at least 2000 times
PI3K p110α/p85α (human)
  ratio IC50 (ATM) vs PI3Kalpha, selectivity with respect to PI3Kalpha: at least 2000 times
PI3K (p120γ) (human)
  ratio IC50 (ATM) vs PI3Kgamma, selectivity with respect to PI3Kgamma: at least 2000 times

## COc1cc2ncc3c(c2cc1-c1cnn(C)c1)n(-c1cc2[nH]ccc2cn1)c(=O)n3C [compound 120, 7-Methoxy-3-methyl-8-(1-methyl-1H-pyrazol-4-yl)-1-(1H-pyrrolo[3,2-c]pyridin-6-yl)-1,3-dihydroimidazo-[4,5-c]quinolin-2-one]
[1]
  IC50: < 1 nM
[2]
  IC50: 200 to 1000 nM
PI3K p110δ/p85α (human)
  ratio IC50 (ATM) vs PI3Kdelta, selectivity with respect to PI3Kdelta: at least 2000 times
PI3K p110α/p85α (human)
  ratio IC50 (ATM) vs PI3Kalpha, selectivity with respect to PI3Kalpha: at least 2000 times
PI3K (p120γ) (human)
  ratio IC50 (ATM) vs PI3Kgamma, selectivity with respect to PI3Kgamma: at least 2000 times
